US20240016938A1, “METHODS FOR INCREASING THE BIOAVAILABILITY OF NUCLEOSIDE MEDICINAL AGENTS” (ZOGENIX MDS, INC., priority 2022, published 2024)

Assay: Pooled population PK analysis of dC and dT (five studies: healthy volunteers, renal impairment, TK2d participants)
Details: human, in vivo
Description: A phase 2 study was conducted as an open-label continuation of treatment with MT1621 in participants with TK2designed to evaluate the safety, tolerability, and PK of MT1621 (fixed dose combination of dC and dT supplied in a single packet). The study enrolled forty-seven (47) participants. After enrollment, participants transitioned from their current chemical grade 2′-deoxycytidine monophosphate/2′-deoxythymidine monophosphate (dCMP/dTMP) to deoxycytidine and deoxythymidine, or continued the use of deoxycytidine and deoxythymidine. Upon enrollment, participants who were on a stable maintenance dose of 400 mg/kg/day were treated with the same dose of deoxycytidine and deoxythymidine three-times daily (TID). Study participants who were on a total dose <400 mg/kg/day were transitioned to either 260 mg/kg/day (130 mg/kg/day of deoxycytidine and 130 mg/kg/day of deoxythymidine) TID, 520 mg/kg/day (260 mg/kg/day of deoxycytidine and 260 mg/kg/day of deoxythymidine) TID, or 800 mg/kg/day (400 mg/kg/day of deoxycytidine and 400 mg/kg/day of deoxythymidine) TID, depending on which was closest to the participants' previous dose.
The early protocol for deoxycytidine and deoxythymidine administration was for the participants to take the drug product without regard to food. […] Later in the program, when an unexpected effect of food on PK was noted, the protocol was amended to instruct the participants to take the drug product with food. By then, planned PK samples had been taken in a majority of the participants. A total of 3 blood samples were collected from each individual following study Day 1 to measure dC plasma concentrations. Sparse PK blood sampling and PD endpoint collection was conducted according to the following schedule: at Month 1 sampled 0.5, 1, 2, or 3 hours post-dose; and at Month 3 sampled 8, 10, 12, or 14 hours post-dose. During sampling, it was noted whether food was consumed from 1 hour pre-dose to 2 hours post-dose. And, the lower limit of quantification (LLOQ) was 0.5 ng/mL for both dC and dT.
For the calculation of the PK parameters, raw (unadjusted) plasma dC and dT concentrations below the limit of quantitation (BLQ) were set to 1% the limit of quantitation (LOQ) of the assay. […] Since all participants had measurable pre-dose concentrations, Kel and associated PK parameters were not calculated for unadjusted data.
Analysis of the PK data pooled from five (5) studies (including those described in Examples 1 and 2) comprising three (3) Phase 1 studies in healthy volunteers (HV) and two (2) open-label Phase 2 studies that included both adult and pediatric study participants with TK2d. A total of 119 study participants were included, which consisted of 44 healthy study participants, 16 study participants with renal impairment (moderate or severe), and 59 participants with TK2d that included participants aged from 0.9 years to 75.6 year of age.
Pooled population PK analysis confirmed that the fed state was a statistically significant covariate of the PK of dC including the TK2 deficient participants. Table 6 reflects analysis of all dC PK data including those for TK2 deficient participants. […] This is the pertinent value to estimate food effect on dC exposures. […] The decrease in the rate of dC absorption with food (parameter Ka in Table 6) is believed to be due to slower gastric/intestinal motility in the fed state. It is likely that the effect of food on dT concentration in participants with TK2 deficiency was masked by the high variability and limited PK sampling.

For `Cc1cn([C@H]2C[C@H](O)[C@@H](CO)O2)c(=O)[nH]c1=O` [dT, β-D-2′-deoxythymidine], the “F lower in healthy volunteers compared to TK2 deficient participants” value was 70-90%, the bioavailability was roughly 83% and the “decrease of F in Latino/Hispanic population” value was roughly 50%. For the same compound, the “decrease of absorption rate constant from first input compartment (K12) with high-fat content meal” value was roughly 80%, the “decrease of lag time from second input compartment (ALAG3) with high-fat content meal” value was roughly 80% and the “dose proportionality of exposures following single ascending doses” value was “more than dose proportional”. For the same compound, the “endogenous baseline across studies” value was 0.220 to 1.14 ng/mL and the “increase of F with a high-fat content meal” value was roughly 120%.

For `Nc1ccn([C@H]2C[C@H](O)[C@@H](CO)O2)c(=O)n1` [dC, β-D-2′-deoxycytidine], the “CL/F, apparent clearance: Bootstrap Median [2.5th-97.5th percentile]” value was 392000 (318000, 492000) L/h, the “CL/F, apparent clearance: NONMEM Estimate (% RSE)” value was 392000 (11.0%) L/h and the “IIV on BSL: Bootstrap Median [2.5th-97.5th percentile]” value was 26.9% (19.4%, 35.3%). For the same compound, the “IIV on BSL: NONMEM Estimate (% RSE)” value was 27.3% (15.0%) CV %, the “IIV on CL/F: Bootstrap Median [2.5th-97.5th percentile]” value was 60.3% (36.2%, 82.3%) and the “IIV on CL/F: NONMEM Estimate (% RSE)” value was 61.6% (18.0%) CV%. For the same compound, the “IIV on F: Bootstrap Median [2.5th-97.5th percentile]” value was 73.3% (37.8%, 102%), the “IIV on F: NONMEM Estimate (% RSE)” value was 75.1% (19.8%) CV % and the “IIV on Ka: Bootstrap Median [2.5th-97.5th percentile]” value was 62.6% (36.1%, 81.8%). The “IIV on Ka: NONMEM Estimate (% RSE)” value was 65.9% (13.6%) CV %, the “IIV on V/F: Bootstrap Median [2.5th-97.5th percentile]” value was 77.9% (39.3%, 107%) and the “IIV on V/F: NONMEM Estimate (% RSE)” value was 77.3% (18.0%) CV %. The “IOV on F: Bootstrap Median [2.5th-97.5th percentile]” value was 31.4% (26.3%, 37.9%), the “IOV on F: NONMEM Estimate (% RSE)” value was 31.5% (8.01%) CV % and the “Ka, absorption rate constant: Bootstrap Median [2.5th-97.5th percentile]” value was 0.465 (0.361, 0.638) h^−1. For the same compound, the “Ka, absorption rate constant: NONMEM Estimate (% RSE)” value was 0.466 (11.5%) h^−1, the “Proportional RUV: Bootstrap Median [2.5th-97.5th percentile]” value was 17.4% (16.1%, 18.8%) and the “Proportional RUV: NONMEM Estimate (% RSE)” value was 17.5% (3.76%). The “V/F, apparent volume of distribution: NONMEM Estimate (% RSE)” value was 284000 (19.9%) L, the Vd/F was 278000 L and the “dC BSL, dC endogenous baseline level: Bootstrap Median [2.5th-97.5th percentile]” value was 3.45 (3.21, 3.65) ng/mL. The “dC BSL, dC endogenous baseline level: NONMEM Estimate (% RSE)” value was 3.45 (3.29%) ng/mL, the “decrease of absorption rate constant (Ka) with food intake” value was roughly 44% and the “difference in F between HV and TK2 deficient participants” value was “No difference in F was detected”. The “endogenous baseline across studies and populations” value was “the same across studies and populations”.
